Active and inactive are the calls of the source. The calls are words filed in the database; no cut-off is given here.
Test: Inhibition of Wnt signal activity by luciferase superTOP-Flash gene assay

Compound	Activity
COC(=O)C[C@H](O)[C@H](Cc1ccc(O)cc1)NC(=O)CNC(=O)[C@H](NC(=O)c1ccc(OC)cc1)[C@@H](C)O	Active
COC(=O)C[C@H](O)[C@H](Cc1ccc(O)cc1)NC(=O)CNC(=O)[C@@H](NC(=O)c1ccc(OC)cc1)[C@@H](C)O	inactive
